Test results reported in patent US20230274799A1, “SYSTEMS AND METHODS FOR PATIENT STRATIFICATION AND IDENTIFICATION OF POTENTIAL BIOMARKERS” (Berg LLC, priority 2016, published 2023).

How the values were obtained:
[1] = Pharmacokinetics of Coenzyme Q10 in plasma during and after 144-hour continuous IV infusion; type: in vivo, human; set-up: Coenzyme Q10 concentration in plasma, Mean ± SD: unit not given here
Description: Pharmacokinetics of Coenzyme Q10 was measured in the patients at time zero and at several time points during and after the 144-hour continuous intravenous (IV) infusion with Coenzyme Q10.

[2] = system: solid tumors; assay: Tumor response evaluation in Phase I trial; type: in vivo, human; conditions: Sixteen of 66 patients
Description: Tumor response was evaluated at week 2 and then after every 2 cycles. Sixteen of 66 patients (24%) maintained a minimum of Stable Disease for >4 cycles. Tumor response data was used to stratify the patients into “overall clinical benefit” or “no clinical benefit” groups.

COC1=C(OC)C(=O)C(C/C=C(\C)CC/C=C(\C)CC/C=C(\C)CC/C=C(\C)CC/C=C(\C)CC/C=C(\C)CC/C=C(\C)CC/C=C(\C)CC/C=C(\C)CCC=C(C)C)=C(C)C1=O [Coenzyme Q10]
Coenzyme Q10 concentration in plasma, Mean ± SD ([1]; 274 mg/kg/week, Arm 1, n = 3 (so in the source), time 24 hr): 261 ± 149 | Coenzyme Q10 concentration in plasma, Mean ± SD ([1]; 274 mg/kg/week, Arm 1, n = 3 (so in the source), time 71.5 hr): 390 ± 260 | Coenzyme Q10 concentration in plasma, Mean ± SD ([1]; 274 mg/kg/week, Arm 1, n = 3 (so in the source), time 73 hr): 329 ± 260 | Coenzyme Q10 concentration in plasma, Mean ± SD ([1]; 274 mg/kg/week, Arm 1, n = 3 (so in the source), time 74 hr): 335 ± 242 | Coenzyme Q10 concentration in plasma, Mean ± SD ([1]; 274 mg/kg/week, Arm 1, n = 3 (so in the source), time 96 hr): 416 ± 291 | Coenzyme Q10 concentration in plasma, Mean ± SD ([1]; 274 mg/kg/week, Arm 1, n = 3 (so in the source), time 140 hr): 513 ± 213 | Coenzyme Q10 concentration in plasma, Mean ± SD ([1]; 274 mg/kg/week, Arm 1, n = 3 (so in the source), time 142 hr): 514 ± 260 | Coenzyme Q10 concentration in plasma, Mean ± SD ([1]; 274 mg/kg/week, Arm 1, n = 3 (so in the source), time 143.5 hr): 510 ± 259 | Coenzyme Q10 concentration in plasma, Mean ± SD ([1]; 274 mg/kg/week, Arm 1, n = 3 (so in the source), time 146 hr): 486 ± 254 | Coenzyme Q10 concentration in plasma, Mean ± SD ([1]; 274 mg/kg/week, Arm 1, n = 3 (so in the source), time 148 hr): 380 ± 219 | Coenzyme Q10 concentration in plasma, Mean ± SD ([1]; 274 mg/kg/week, Arm 1, n = 4 (footnote e), time 96 hr): 407 ± 195^e | Coenzyme Q10 concentration in plasma, Mean ± SD ([1]; 274 mg/kg/week, Arm 1, n = 4 (footnote e), time 140 hr): 517 ± 185^e | Coenzyme Q10 concentration in plasma, Mean ± SD ([1]; 274 mg/kg/week, Arm 1, n = 4 (footnote e), time 142 hr): 528 ± 179^e | Coenzyme Q10 concentration in plasma, Mean ± SD ([1]; 274 mg/kg/week, Arm 1, n = 5 (footnote d), time 4 hr): 181 ± 56^d | Coenzyme Q10 concentration in plasma, Mean ± SD ([1]; 274 mg/kg/week, Arm 1, n = 5 (footnote d), time 71.5 hr): 265 ± 188^d | Coenzyme Q10 concentration in plasma, Mean ± SD ([1]; 274 mg/kg/week, Arm 1, n = 5 (footnote d), time 146 hr): 460 ± 249^d | Coenzyme Q10 concentration in plasma, Mean ± SD ([1]; 274 mg/kg/week, Arm 1, n = 5 (footnote d), time 148 hr): 397 ± 230^d | Coenzyme Q10 concentration in plasma, Mean ± SD ([1]; 274 mg/kg/week, Arm 1, n = 6, time 0 hr): 0 | Coenzyme Q10 concentration in plasma, Mean ± SD ([1]; 274 mg/kg/week, Arm 1, n = 6, time 1 hr): 188 ± 46 | Coenzyme Q10 concentration in plasma, Mean ± SD ([1]; 274 mg/kg/week, Arm 1, n = 6, time 2 hr): 190 ± 38 | Coenzyme Q10 concentration in plasma, Mean ± SD ([1]; 274 mg/kg/week, Arm 1, n = 6, time 24 hr): 287 ± 189 | Coenzyme Q10 concentration in plasma, Mean ± SD ([1]; 274 mg/kg/week, Arm 1, n = 6, time 73 hr): 367 ± 313 | Coenzyme Q10 concentration in plasma, Mean ± SD ([1]; 274 mg/kg/week, Arm 1, n = 6, time 74 hr): 387 ± 332 | Coenzyme Q10 concentration in plasma, Mean ± SD ([1]; 274 mg/kg/week, Arm 1, n = 6, time 143.5 hr): 560 ± 246 | Coenzyme Q10 concentration in plasma, Mean ± SD ([1]; 342 mg/kg/week, Arm 1, n = 4 (footnote e), time 96 hr): 411 ± 189^e | Coenzyme Q10 concentration in plasma, Mean ± SD ([1]; 342 mg/kg/week, Arm 1, n = 4 (footnote e), time 140 hr): 695 ± 414^e | Coenzyme Q10 concentration in plasma, Mean ± SD ([1]; 342 mg/kg/week, Arm 1, n = 4 (footnote e), time 143.5 hr): 789 ± 161^e | Coenzyme Q10 concentration in plasma, Mean ± SD ([1]; 342 mg/kg/week, Arm 1, n = 4 (footnote e), time 146 hr): 679 ± 141^e | Coenzyme Q10 concentration in plasma, Mean ± SD ([1]; 342 mg/kg/week, Arm 1, n = 4 (footnote e), time 148 hr): 596 ± 143^e | Coenzyme Q10 concentration in plasma, Mean ± SD ([1]; 342 mg/kg/week, Arm 1, n = 5, time 0 hr): 0 | Coenzyme Q10 concentration in plasma, Mean ± SD ([1]; 342 mg/kg/week, Arm 1, n = 5, time 1 hr): 289 ± 59 | Coenzyme Q10 concentration in plasma, Mean ± SD ([1]; 342 mg/kg/week, Arm 1, n = 5, time 2 hr): 297 ± 81 | Coenzyme Q10 concentration in plasma, Mean ± SD ([1]; 342 mg/kg/week, Arm 1, n = 5, time 4 hr): 304 ± 90 | Coenzyme Q10 concentration in plasma, Mean ± SD ([1]; 342 mg/kg/week, Arm 1, n = 5, time 24 hr): 463 ± 274 | Coenzyme Q10 concentration in plasma, Mean ± SD ([1]; 342 mg/kg/week, Arm 1, n = 5, time 71.5 hr): 563 ± 188 | Coenzyme Q10 concentration in plasma, Mean ± SD ([1]; 342 mg/kg/week, Arm 1, n = 5, time 73 hr): 514 ± 205 | Coenzyme Q10 concentration in plasma, Mean ± SD ([1]; 342 mg/kg/week, Arm 1, n = 5, time 74 hr): 537 ± 219 | Coenzyme Q10 concentration in plasma, Mean ± SD ([1]; 342 mg/kg/week, Arm 1, n = 5, time 142 hr): 699 ± 290 | Mean plasma concentrations of Coenzyme Q10, comparison of doses ([1]; Arm 1 (monotherapy), exception: 96-hour sampling time, similar): higher for the 342 mg/kg/week dose than for the 274 mg/kg/week dose | Effect of concomitant chemotherapy on the pharmacokinetics of Coenzyme Q10 ([1]; Arm 1 vs Arm 2 at any of the dose levels): no apparent effect | Plasma profiles of Coenzyme Q10, comparison of doses ([1]; Arm 2 (chemotherapy combination therapy), first 72 hours of the infusion, distinctly higher during the second 72 hours): slightly higher for the 274 mg/kg/week dose than for the 220 mg/kg/week dose | Patients who maintained a minimum of Stable Disease for >4 cycles [2]: 24%
